Reference: paper PMC4595834, “Comparison of carbon-sulfur and carbon-amine bond in therapeutic drug: 4β-S-aromatic heterocyclic podophyllum derivatives display antitumor activity” (Scientific Reports, 2015)

Experiments:
A549 cells = assay: MTT cytotoxicity assay, A549; type: cell-based, human; settings: for IC50: Homo sapiens, A549, 48 h, MTT, drug exposure 48 h, mean ± SD (n = 3), read-out: Cytotoxic activity (IC50) A549
Procedure: (§1) Cytotoxicity of the podophyllum derivatives were determined by reading the absorbance at 492 nm on a multiplate reader (Thermo Fisher Scientific, Multiskan MK3). Cell cycle analysis and apoptosis analysis were analyzed by flow cytometry (Accuri C6, BD). Immunofluorescence images were recorded using laser scanning microscope (Perkin-Elmer & Olympus, UltraView VoX & Ix81). The gel for the decatenation of kDNA by Topoisomerase II study was photographed with UV illumination, Tanon 1600 (Tanon Science & Technology Co., Ltd., Shanghai). The nitrocellulose blotting membrane for western blot analysis was visualized using X-ray film processor and X-ray film, Fujifilm SUPER RX-N-C.
(§2) Cytotoxicity assay was performed on human lung adenocarcinoma epithelial cell line (A549), henrietta lacks strain of cancer cells (HeLa), human gastric carcinoma cell line (BGC 823), and normal human hepatocyte cell line (HL-7702). Cells (3500–13,000) in a 100 μL culture medium per well were seeded into 96-well microtest plates (Falcon, CA). A549 cell lines, HeLa cell lines and HL-7702 cell lines were cultured in DMEM supplemented with 10% CS, 100 mg/L penicillin G, 100 mg/L streptomycin. BGC 823 cell lines were cultured in RPMI medium 1640 supplemented with 10% CS, 100 mg/L penicillin G, and 100 mg/L streptomycin. The cells were incubated at 37 °C, in a humidified atmosphere with 5% CO2 for 48 h. For all cell lines, the microculture tetrazolium [3-(4, 5-dimethylthiazol-2-yl)-2, 5-diphenyltetrazolium bromide, MTT; Sigma, St. Louis, MO] assay was performed to measure the cytotoxic effects. Drug stock solutions (the each drug concentration was 0.5, 1, 10, 20, 50, 100, 200, and 500 μM, respectively) were prepared in DMSO and the final solvent concentration was ≤ 2% DMSO (v/v), a concentration without effect on cell replication. Initial seeding densities varied among the cell lines to ensure a final absorbance reading in control (untreated) cultures in the range 0.6–0.8 A492 units. Drug exposure was for 2 days, and the IC50 value, the drug concentration that reduced the absorbance by 50%, was interpolated from dose-response data. Each test was performed in triplicate, and absorbance readings varied no more than 5%. Data presented as means ± standard deviation (SD). Statistical analyses were performed by the analysis of variance (ANOVA). All statistical analyses were performed using Origin version 8.0 ([…], OriginLab Corp., Northampton, MA, USA). Sigmoidal dose responses and non-linear regression analyses were undertaken to identify half-maximal concentrations for each of the drugs. To evaluate differences in IC50 concentrations, analysis of variance combined with Tukey’s multiple range test was used.

Topoisomerase II = target: T1, Topoisomerase II (Homo sapiens, UniProt P11388); assay: kDNA decatenation assay (Topoisomerase II inhibition); type: biochemical; settings: 100 μM
T1 construct: purchased TopoGEN Inc., USA 2000H
Procedure: Kinetoplast DNA (kDNA) is a catenated network of mitochondrial DNA seen in trypanosomes.
Topoisomerase II activity was determined using kit (TopoGEN Inc., USA, Cat no. 2000H). […] Next, 4 U of topoisomerase II was added and the reaction was allowed to proceed for 60 min at 37 °C. The reaction was stopped by the addition of 1/10 volume of 1 mg/mL proteinase K and incubated for 15 min at 37 °C. The reaction was quenched via the addition of loading buffer (350 mM Tris, pH 6.8, 12% SDS, 0.012% bromophenol blue, 47% glycerol) and was then analyzed by electrophoresis on a 1% agarose gel in TBE buffer (89 mM Tris, 89 mM borate, and 2 mM Na-EDTA, pH 8.3) for 0.5 h at 140 V. The gel was visualized under UV illumination and photographed on an Alpha Imager.

HeLa cells [1] = assay: MTT cytotoxicity assay, HeLa; type: cell-based, human; settings: for IC50: Homo sapiens, HeLa, MTT, drug exposure 48 h, mean ± SD (n = 3), read-out: Cytotoxic activity (IC50) HeLa; for IC50 fold difference vs the corresponding C-NH compound (1N or 1′N): HeLa cells
Procedure: as §1, §2

BGC-823 cells = assay: MTT cytotoxicity assay, BGC-823; type: cell-based, human; settings: for IC50: Homo sapiens, BGC-823, MTT, drug exposure 48 h, mean ± SD (n = 3), read-out: Cytotoxic activity (IC50) BGC-823
Procedure: as §1, §2

HeLa cells [2] = assay: Flow cytometry ROS (DCFH-DA) in HeLa cells; type: cell-based, human; settings: for fluorescence intensity of ROS: 10 μM
Procedure: (§3) For the cell cycle analysis, HeLa cells were treated with test compounds for 6, 12, 24 and 48 h at 37 °C in 6-well plates. Appropriate controls, in which cells were mock-treated by DMSO (<1%) for the same durations, were also set up. After being treated, all cells were trypsinized and collected, washed twice with PBS, added with 4 °C 70% ethanol (10 mL) and stored overnight at 4 °C. After this, cells were spun down at 1500 rpm for 5 min, washed once with PBS, and then treated with the mixture of 10 μL RNase (10 mg/mL), 50 μL propidium iodide (1 mg/mL) and 940 μL 1 × PBS, incubated at room temperature for 30 min in the dark. The stained cells were analyzed by flow cytometry. The result was analyzed with ModFit LT^TM 3.2 version software. For the apoptosis determination, after 6, 12, 24 and 48 h treatment with test compounds, HeLa cells were harvested, re-suspend in 500 μL annexin-binding buffer (10mM HEPES, 140 mM NaCl, 2.5 mM CaCl2, pH 7.4) at the cell density of about 10^6 cells/mL and stained with 5 μL annexin V and 5 μL propidium iodide for 15 min at room temperature. Changes in intracellular ROS levels were determined by measuring the oxidative conversion of cell permeable 2′,7′-dichlorofluorescein diacetate (DCFH-DA) to fluorescent di-chlorofluorescein (DCF) in flow cytometry (BD Accuri C6). Cells in 6-well culture dishes were incubated with DMEM for 6, 12, 24 and 48 h in the absence or presence of test compounds. The cells were washed with DMEM and incubated with DCFH-DA (10 μM) at 37 °C for 30 min. Then DCF fluorescence of 10,000 cells was detected by flow cytometry.

HeLa cells [3] = assay: Western blot of apoptosis pathway proteins in HeLa cells; type: cell-based, human; settings: 1 μM; for apoptotic pathways activated (BimEL, caspase-9, -8, -3, PARP): 12–48 h
Procedure: Cells were lysed by adding 100 μL of RIPA buffer (50 mM Tris, pH 8.0, 150 mM NaCl, 1% TX-100, 0.5% sodium deoxycholate, 0.1% SDS) with 1% Protease Inhibitor PMSF. Each sample was then vigorously vortexed twice for 15 seconds, with a 30-minute incubation on ice following each agitation. The cellular debris was pelleted (12,000 rpm, 10 min), and then 100 μL of the protein suspension was transferred to fresh 0.5 mL tubes. The protein levels were quantified using a standard BCA (Thermo Scientific), after which the samples were diluted with deionized water to achieve equal protein concentrations for all samples. Prior to analyzing the samples, 5 × Loading buffer (350 mM Tris, pH 6.8, 12% SDS, 0.012% bromophenol blue, 47% glycerol) with 5% β-mercaptoethanol was added to each sample to achieve a final 1 × concentration, after which the samples were incubated at 95 °C for 10 minutes to denature the protein samples. 20–30 μg of protein was added to and run on a 15-well 4–20% Tris-HCl gel. The gel was equilibrated buffer (39 mM glycine, 48 mM, 0.037 g/L SDS, 200 mL/L methanol) for 5 minutes, then the protein were transferred to a PVDF membrane, which was incubated with 5% fetal bovine serum in TBST (20 mM Tris-HCl, pH 8.0, 150 mM, 0.5 mL/L Tween-20) for 1 h to block non-specific binding, and then probed for the primary antibody at a 1:1000 dilution with a blocking agent in TBST for 1 h at room temperature. The blot was washed with TBST, and then probed with a secondary antibody in TBST for 1 hour at room temperature. The blot was washed with TBST, and then The ECL detection kit (Millipore) was added to catalyze oxidation of luminol to emit chemiluminescence, and the membrane was visualized using X-ray film processor and X-ray film (Fujifilm SUPER RX-N-C).

HeLa cells [4] = assay: Flow cytometry cell cycle analysis in HeLa cells; type: cell-based, human; settings: for G2/M phase arrest: 0.1 μM; for percentage of G2/M phase cells: 1 μM; for percentage of G2/M phase cells / percentage of G2/M phase cells (maximum): 48 h; for percentage of G2/M phase cells (maximum): 5 μM
Procedure: as §3

[5] = MTT cytotoxicity assay, normal hepatocyte HL-7702; type: cell-based; settings: HL-7702 cells (normal hepatocyte cell line), normal human hepatocyte cell line, drug exposure 48 h, mean ± SD (n = 3), read-out: Cytotoxic activity (IC50) HL-7702
Procedure: as §1, §2

[6] = before the 48 h change (24 h induction)

T1 sequence (P11388 whole entry): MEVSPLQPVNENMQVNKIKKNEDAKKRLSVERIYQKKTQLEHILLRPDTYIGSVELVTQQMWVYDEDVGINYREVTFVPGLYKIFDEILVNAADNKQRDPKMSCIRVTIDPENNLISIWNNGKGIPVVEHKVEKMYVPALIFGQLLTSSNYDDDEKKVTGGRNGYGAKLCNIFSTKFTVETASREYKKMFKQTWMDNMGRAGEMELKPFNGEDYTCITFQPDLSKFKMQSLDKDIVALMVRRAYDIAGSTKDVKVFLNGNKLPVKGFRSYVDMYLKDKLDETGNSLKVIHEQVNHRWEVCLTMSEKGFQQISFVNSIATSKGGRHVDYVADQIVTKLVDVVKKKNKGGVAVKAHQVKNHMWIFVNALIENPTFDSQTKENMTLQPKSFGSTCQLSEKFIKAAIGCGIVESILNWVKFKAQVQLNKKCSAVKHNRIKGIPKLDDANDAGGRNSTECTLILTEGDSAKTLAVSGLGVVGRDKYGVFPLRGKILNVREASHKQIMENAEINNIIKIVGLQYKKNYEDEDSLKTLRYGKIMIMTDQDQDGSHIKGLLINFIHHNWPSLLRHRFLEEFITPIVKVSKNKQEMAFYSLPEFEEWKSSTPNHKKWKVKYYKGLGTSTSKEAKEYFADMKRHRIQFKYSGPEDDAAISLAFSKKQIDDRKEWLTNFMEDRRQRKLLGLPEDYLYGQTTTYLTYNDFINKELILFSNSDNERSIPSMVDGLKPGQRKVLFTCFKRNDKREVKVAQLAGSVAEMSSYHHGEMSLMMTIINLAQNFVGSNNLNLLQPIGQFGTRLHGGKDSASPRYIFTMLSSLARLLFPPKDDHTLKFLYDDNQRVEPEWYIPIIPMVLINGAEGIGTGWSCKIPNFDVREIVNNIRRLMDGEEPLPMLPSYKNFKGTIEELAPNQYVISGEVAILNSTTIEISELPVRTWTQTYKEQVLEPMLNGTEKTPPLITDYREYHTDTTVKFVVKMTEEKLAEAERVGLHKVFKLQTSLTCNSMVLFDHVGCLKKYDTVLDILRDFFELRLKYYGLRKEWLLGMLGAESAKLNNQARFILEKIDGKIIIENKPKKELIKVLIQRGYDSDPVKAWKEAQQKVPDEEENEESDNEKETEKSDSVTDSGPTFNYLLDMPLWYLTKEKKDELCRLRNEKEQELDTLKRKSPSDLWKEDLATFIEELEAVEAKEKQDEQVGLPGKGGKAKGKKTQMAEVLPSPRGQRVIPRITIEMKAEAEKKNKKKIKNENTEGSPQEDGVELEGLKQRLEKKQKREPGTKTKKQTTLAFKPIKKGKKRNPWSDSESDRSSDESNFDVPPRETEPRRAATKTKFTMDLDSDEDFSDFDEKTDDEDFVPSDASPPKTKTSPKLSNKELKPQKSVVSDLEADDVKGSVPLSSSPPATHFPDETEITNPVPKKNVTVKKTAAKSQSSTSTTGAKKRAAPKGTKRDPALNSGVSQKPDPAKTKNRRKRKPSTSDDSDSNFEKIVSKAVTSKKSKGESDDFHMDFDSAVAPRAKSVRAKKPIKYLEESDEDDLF

SMILES | IC50 (A549 cells) | inhibition of catalytic activity of Topo II (kDNA decatenation) (Topoisomerase II) | IC50 (HeLa cells [1]) | IC50 (BGC-823 cells) | fluorescence intensity of ROS (HeLa cells [2]; 48 h induction, half (1S) or most (1N) of the cells) | fluorescence intensity of ROS (HeLa cells [2]; [6]) | apoptotic pathways activated (BimEL, caspase-9, -8, -3, PARP) (HeLa cells [3]) | G2/M phase arrest (HeLa cells [4]) | percentage of G2/M phase cells (HeLa cells [4]) | percentage of G2/M phase cells (maximum) (HeLa cells [4]) | IC50 at 48 h [5] | IC50 fold difference vs Compound 1N (A549 cells; A549 cells) | IC50 fold difference vs the corresponding C-NH compound (1N or 1′N) (HeLa cells [1]) | amount of ROS (fluorescence intensity × count of cells) improved compared with Compound 1N (HeLa cells [2]; 48 h) | IC50 fold difference vs Compound 1N (BGC-823 cells; BGC-823 cells) | activation of ATM, ATR, caspase-8, 9 and 3 (HeLa cells [3]; 0-48 h)
COc1cc([C@@H]2c3cc4c(cc3[C@@H](Sc3ccccn3)[C@H]3COC(=O)[C@H]23)OCO4)cc(OC)c1O [3′S, 4β-S-(pyridine-2)-4-deoxy-4′-demethyl-podophyllotoxin] | 3.85 ± 0.35 µM | nearly inhibited | 5.6 ± 0.39 µM | 10.3 ± 0.34 µM | – | – | – | – | – | – | – | – | – | – | – | –
COc1cc([C@@H]2c3cc4c(cc3[C@@H](Nc3nc[nH]n3)[C@H]3COC(=O)[C@H]23)OCO4)cc(OC)c1OC [Compound 1N, 4β-NH-(1,2,4-trizole-3)-4-deoxy-podophyllotoxin] | 5.33 ± 0.52 µM | – | 3.85 ± 0.21 µM | 1.25 ± 0.13 µM | 10^4–10^5 | 10^5–10^6 | only stimulated the mitochondrial apoptotic pathway | did not induce the G2/M phase arrest | about 80% | 80-90% | 21.2 ± 2.16 µM | – | – | – | – | –
COc1cc([C@@H]2c3cc4c(cc3[C@@H](Sc3nc[nH]n3)[C@H]3COC(=O)[C@H]23)OCO4)cc(OC)c1OC [Compound 1S, 4β-S-(1,3,4-trizole-2)-4-deoxy-podophyllotoxin] | – | – | 0.17 ± 0.02 µM | 0.34 ± 0.02 µM | – | 10^5–10^6 | activated the mitochondrial and the death receptor apoptotic pathways | did not induce the G2/M phase arrest | about 80% | 80-90% | 56.1 ± 3.54 µM | ~6 times | about 29 times | 4.8 times | ~3 times | –
COc1cc([C@@H]2c3cc4c(cc3[C@@H](Sc3nc[nH]n3)[C@H]3COC(=O)[C@H]23)OCO4)cc(OC)c1O [Compound 1′S, 4β-S-(1,3,4-trizole-2)-4-deoxy-4′-demethylepipodophyllotoxin] | 3.85 ± 0.38 µM | nearly inhibited | 0.32 ± 0.03 µM | 8.38 ± 0.53 µM | – | – | – | – | – | – | 43.2 ± 1.66 µM | – | 16 times | – | – | activation of all these proteins
